In patent publication US20230098332A1, “HETEROCYCLIC DERIVATIVES AS TRMP8 ANTAGONISTS” (Givaudan SA, priority 2020, published 2023):
Structures can show the parent of a compound that is named as a salt.

molecular target: T1, hTRPM8 (Homo sapiens, UniProt Q7Z2W7); assay: Assay on TRPM8 modulators: calcium imaging (Fluo-4, Flexstation) in HEK293 cell line stably expressing hTRPM8; assay type: cell-based; details: TRPM8 agonist activity, calcium influx, HEK293 stably expressing hTRPM8, sigmoidal dose-response fit
T1 construct: expressed in transfected cells
Description: A HEK293 cell line stably expressing hTRPM8 was generated according to Klein et al., (Chem. Senses 36: 649-658, 2011) and receptor activation was monitored by calcium imaging in a Flexstation. For Ca-imaging assays of TRPM8 channel activation, cells were seeded on day 0 at a density of 12000 cells per well in Dulbecco's modified Eagle medium (DMEM) containing 9% foetal bovine serum in black, clear bottom 96-well plates that had been coated with 0.001% polyethyleneimine (molecular weight=60 000, Acros Organics). On day 2, agonists were evaluated via calcium imaging using Fluo-4. Briefly, growth medium was discarded, and the cells were incubated in the dark for 1 h at 37° C. in 50 μL loading buffer consisting of 2.7 μM Fluo-4 AM (Invitrogen) and […] probenecid (Sigma-Aldrich) in DMEM (without serum). After incubation, the plates were washed five times with 100 μL of assay buffer (in mM: 130 NaCl, 5 KCl, 10 HEPES, 2 CaCl2, and 10 glucose, pH7.4.) and further incubated in the dark at room temperature for 30 min. The cells were then washed five times with 100 μL assay buffer and then calcium influx to serial dilutions of inventive compounds were measured in a Flexstation 3 (Molecular Devices). Receptor activation was initiated following addition of 20 μl of a 10-fold concentrated ligand stock solution, which is also prepared in assay buffer. Fluorescence was continuously monitored for 15 seconds prior to ligand addition and for 105 seconds after ligand addition, for a total of 120 seconds. Maximal receptor activation in relation to solvent control and relative to 31.6 μM menthol is determined. Data from serial dilutions were processed with a KNIME workflow to fit a sigmoidal dose-response curve and to extrapolate EC50 values.

T1 sequence (Q7Z2W7 whole entry): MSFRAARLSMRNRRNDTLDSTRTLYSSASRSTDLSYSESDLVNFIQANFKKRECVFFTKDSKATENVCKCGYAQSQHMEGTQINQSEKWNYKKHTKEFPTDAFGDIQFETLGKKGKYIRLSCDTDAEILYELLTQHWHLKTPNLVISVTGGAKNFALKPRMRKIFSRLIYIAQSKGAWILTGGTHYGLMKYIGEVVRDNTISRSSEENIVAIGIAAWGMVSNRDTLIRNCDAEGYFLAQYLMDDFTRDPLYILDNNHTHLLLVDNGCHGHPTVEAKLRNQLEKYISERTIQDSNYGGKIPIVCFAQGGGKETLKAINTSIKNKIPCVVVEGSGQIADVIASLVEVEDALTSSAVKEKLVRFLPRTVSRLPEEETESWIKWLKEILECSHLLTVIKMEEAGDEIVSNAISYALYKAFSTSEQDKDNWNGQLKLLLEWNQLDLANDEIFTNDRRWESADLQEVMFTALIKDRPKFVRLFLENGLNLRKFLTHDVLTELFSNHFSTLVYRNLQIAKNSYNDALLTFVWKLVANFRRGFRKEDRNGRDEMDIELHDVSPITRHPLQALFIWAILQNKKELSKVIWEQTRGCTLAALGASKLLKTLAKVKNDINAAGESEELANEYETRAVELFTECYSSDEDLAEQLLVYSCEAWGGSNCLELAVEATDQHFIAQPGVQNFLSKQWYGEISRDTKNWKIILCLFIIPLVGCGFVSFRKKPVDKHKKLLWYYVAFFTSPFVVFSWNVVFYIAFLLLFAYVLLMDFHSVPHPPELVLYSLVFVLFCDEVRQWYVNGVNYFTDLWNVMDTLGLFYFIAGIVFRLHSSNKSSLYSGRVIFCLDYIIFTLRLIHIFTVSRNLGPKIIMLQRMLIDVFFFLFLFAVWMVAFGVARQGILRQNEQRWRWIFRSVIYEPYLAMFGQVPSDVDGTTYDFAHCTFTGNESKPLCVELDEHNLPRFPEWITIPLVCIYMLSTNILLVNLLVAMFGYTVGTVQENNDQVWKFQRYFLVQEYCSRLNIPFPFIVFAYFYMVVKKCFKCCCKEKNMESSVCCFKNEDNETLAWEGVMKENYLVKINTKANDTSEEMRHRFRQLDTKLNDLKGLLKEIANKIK

Structure (SMILES)	EC50
Cc1ccc(OCCN2CCC(CO)CC2)c(Cc2ccccc2)c1 [compound 40, (1-(2-(2-benzyl-4-methylphenoxy)ethyl)piperidin-4-yl)methanol]	1 to 35 µM
Cc1ccc(OCCN2CCN(C)CC2)c(C(O)c2ccccc2)c1 (centres unmarked) [compound 41, (5-methyl-2-(2-(4-methylpiperazin-1-yl)ethoxy)phenyl)(phenyl)methanol]	1 to 35 µM
Cc1ccc(OCCN2CCN(C)CC2)c(C(=O)c2ccccc2)c1 [compound 42, (5-methyl-2-(2-(4-methylpiperazin-1-yl)ethoxy)phenyl)(phenyl)methanone]	1 to 35 µM
CC1=C(OCCN2CCN(C)CC2)/C(=C/c2ccccc2)CC(C)C1 (centres unmarked) [compound 43, (E)-1-(2-((6-benzylidene-2,4-dimethylcyclohex-1-en-1-yl)oxy)ethyl)-4-methylpiperazine]	1 to 35 µM
Cc1ccc(/C=C/CN2CCN(C)CC2)c(Cc2ccccc2)c1 [compound 44, (E)-1-(3-(2-benzyl-4-methylphenyl)allyl)-4-methylpiperazine]	1 to 35 µM
Cc1ccc(OCCN2CCN(C)CC2)c(/C=C2\CCCCC2=O)c1 [compound 46, (E)-2-(5-methyl-2-(2-(4-methylpiperazin-1-yl)ethoxy)benzylidene)cyclohexan-1-one]	0.3 to 1 µM
Cc1ccc(OCCN2CCOCC2)c(/C=C2\CCCCC2=O)c1 [compound 47, (E)-2-(5-methyl-2-(2-morpholinoethoxy)benzylidene)cyclohexan-1-one]	0.05 to 0.3 µM
Cc1cc(C)c(OCC(C)N2CCOCC2)c(Cc2ccccc2C#N)c1 (centres unmarked) [compound 48, 2-(3,5-dimethyl-2-(2-morpholinopropoxy)benzyl)benzonitrile]	0.05 to 0.3 µM
Cc1cc(C)c(OC(C)CN2CCOCC2)c(Cc2ccccc2C#N)c1 (centres unmarked) [compound 49, 2-(3,5-dimethyl-2-((1-morpholinopropan-2-yl)oxy)benzyl)benzonitrile]	0.05 to 0.3 µM
CN1CCN(CC2CCc3cccc(Cc4ccccc4)c3O2)CC1 (centres unmarked) [compound 50, 1-((8-benzylchroman-2-yl)methyl)-4-methylpiperazine]	1 to 35 µM
CC1CCC(OCCN2CCN(C)CC2)C(Cc2ccccc2)C1 (centres unmarked) [compound 51, 1-(2-((2-benzyl-4-methylcyclohexyl)oxy)ethyl)-4-methylpiperazine]	1 to 35 µM
CC1CCC(OCCN2CCN(C)CC2)C(Cc2ccccc2)C1 (centres unmarked) [compound 52, 1-(2-((2-benzyl-4-methylcyclohexyl)oxy)ethyl)-4-methylpiperazine dihydrochloride]	1 to 35 µM
Cc1ccc(OCCN2CCN(C)CC2)c(Cc2ccc(Cl)s2)c1 [compound 53, 1-(2-(2-((5-chlorothiophen-2-yl)methyl)-4-methylphenoxy)ethyl)-4-methylpiperazine]	1 to 35 µM
Cc1cc(C)c(OCCN2CCN(C)CC2)c(Cc2ccccc2Br)c1 [compound 54, 1-(2-(2-(2-bromobenzyl)-4,6-dimethylphenoxy)ethyl)-4-methylpiperazine]	0.3 to 1 µM

Now from value to compound:

EC50	Structure (SMILES)
0.05 to 0.3 µM	Cc1ccc(OCCN2CCN(C)CC2)c(Cc2ccccc2Cl)c1 [compound 55, 1-(2-(2-(2-chlorobenzyl)-4-methylphenoxy)ethyl)-4-methylpiperazine]
0.05 to 0.3 µM	Cc1cc(C)c(OCCN2CCN(C)CC2)c(Cc2ccccc2F)c1 [compound 56, 1-(2-(2-(2-fluorobenzyl)-4,6-dimethylphenoxy)ethyl)-4-methylpiperazine]
0.3 to 1 µM	Cc1cc(C)c(OCCN2CCN(C)CC2)c(Cc2ccccc2I)c1 [compound 57, 1-(2-(2-(2-iodobenzyl)-4,6-dimethylphenoxy)ethyl)-4-methylpiperazine]
1 to 35 µM	Cc1cc(C)c(OCCN2CCN(C)CC2)c(Cc2cccc(Br)c2)c1 [compound 58, 1-(2-(2-(3-bromobenzyl)-4,6-dimethylphenoxy)ethyl)-4-methylpiperazine]
1 to 35 µM	Cc1ccc(OCCN2CCN(C)CC2)c(Cc2cccc(Cl)c2)c1 [compound 59, 1-(2-(2-(3-chlorobenzyl)-4-methylphenoxy)ethyl)-4-methylpiperazine]
1 to 35 µM	Cc1ccc(OCCN2CCN(C)CC2)c(Cc2ccc(Cl)cc2)c1 [compound 60, 1-(2-(2-(4-chlorobenzyl)-4-methylphenoxy)ethyl)-4-methylpiperazine hydrochloride]
1 to 35 µM	Cc1ccc(OCCN2CCN(C)CC2)c(Cc2ccco2)c1 [compound 61, 1-(2-(2-(furan-2-ylmethyl)-4-methylphenoxy)ethyl)-4-methylpiperazine]
0.3 to 1 µM	Cc1cc(C)c(OCCN2CCN(C)CC2)c(Cc2ccccc2C(F)(F)F)c1 [compound 62, 1-(2-(2,4-dimethyl-6-(2-(trifluoromethyl)benzyl)phenoxy)ethyl)-4-methylpiperazine]
1 to 35 µM	Cc1cc(C)c(OCCN2CCN(C)CC2)c(Cc2ccccn2)c1 [compound 63, 1-(2-(2,4-dimethyl-6-(pyridin-2-ylmethyl)phenoxy)ethyl)-4-methylpiperazine]
1 to 35 µM	Cc1cc(C)c(OCCN2CCN(C)CC2)c(Cc2cccnc2)c1 [compound 64, 1-(2-(2,4-dimethyl-6-(pyridin-3-ylmethyl)phenoxy)ethyl)-4-methylpiperazine]
1 to 35 µM	Cc1cc(C)c(OCCN2CCN(C)CC2)c(Cc2ccncc2)c1 [compound 65, 1-(2-(2,4-dimethyl-6-(pyridin-4-ylmethyl)phenoxy)ethyl)-4-methylpiperazine]
1 to 35 µM	Cc1ccc(C)c(OCCN2CCN(C)CC2)c1Cc1ccccc1 [compound 66, 1-(2-(2-benzyl-3,6-dimethylphenoxy)ethyl)-4-methylpiperazine]
1 to 35 µM	COc1cccc(OCCN2CCN(C)CC2)c1Cc1ccccc1 [compound 67, 1-(2-(2-benzyl-3-methoxyphenoxy)ethyl)-4-methylpiperazine]
1 to 35 µM	Cc1cccc(OCCN2CCN(C)CC2)c1Cc1ccccc1 [compound 68, 1-(2-(2-benzyl-3-methylphenoxy)ethyl)-4-methylpiperazine]
1 to 35 µM	COc1cc(C(C)(C)C)cc(Cc2ccccc2)c1OCCN1CCN(C)CC1 [compound 69, 1-(2-(2-benzyl-4-(tert-butyl)-6-methoxyphenoxy)ethyl)-4-methylpiperazine]
0.3 to 1 µM	Cc1cc(C)c(OCCN2CCN(C)CC2)c(Cc2ccccc2)c1 [compound 70, 1-(2-(2-benzyl-4,6-dimethylphenoxy)ethyl)-4-methylpiperazine]
1 to 35 µM	CCN1CCN(CCOc2ccc(Cl)cc2Cc2ccccc2)CC1 [compound 72, 1-(2-(2-benzyl-4-chlorophenoxy)ethyl)-4-ethylpiperazine hydrochloride]
0.3 to 1 µM	CN1CCN(CCOc2ccc(Cl)cc2Cc2ccccc2)CC1 [compound 73, 1-(2-(2-benzyl-4-chlorophenoxy)ethyl)-4-methylpiperazine hydrochloride]
0.3 to 1 µM	CCc1ccc(OCCN2CCN(C)CC2)c(Cc2ccccc2)c1 [compound 74, 1-(2-(2-benzyl-4-ethylphenoxy)ethyl)-4-methylpiperazine hydrochloride]
1 to 35 µM	CC(C)c1ccc(OCCN2CCN(C)CC2)c(Cc2ccccc2)c1 [compound 75, 1-(2-(2-benzyl-4-isopropylphenoxy)ethyl)-4-methylpiperazine]
1 to 35 µM	CCN1CCN(CCOc2ccc(C)cc2Cc2ccccc2)CC1 [compound 76, 1-(2-(2-benzyl-4-methylphenoxy)ethyl)-4-ethylpiperazine hydrochloride]
